Reference: patent publication US20250325526A1, “USE OF TETRAHYDRONAPHTHYRIDINE DERIVATIVE FOR PREPARING PRODUCT FOR IMPROVING HYPERPIGMENTATION” (SCINNOHUB PHARMACEUTICAL CO., LTD, priority 2022, published 2025)

How the values were obtained:
Format in all cases: in vivo, SD rats
melanin granules = assay: Rat melasma model: Fontana-Masson staining of melanin granules; conditions: for distribution of melanin granules: skin collected Day 58, tranexamic acid 5 mg/mL; for melanin granules in the skin tissue: skin collected Day 58, vs model group, tranexamic acid 5 mg/mL
Description: 3.3 Detection of indicators: The first day of modeling was denoted as Day 1, and the experimental period lasted for 58 days. […] Then the rats in each group were euthanized, their backs were depilated, and 0.5 g of full-thickness skin tissue from the depilated back was taken and placed into an ice bath, and normal saline was added to make a 10% tissue homogenate. The homogenate was centrifuged at 3000 r/min at room temperature for 10 min to obtain a supernatant of skin tissue homogenate. ELISA was carried out to detect the expression of endothelin-1 in the supernatant of skin tissue homogenate. The skin of the modeling area on the back of rats was taken and immersed in 10% neutral formaldehyde for fixation at room temperature for 4 days. Four days later (Day 62), paraffin embedding and sectioning were performed to obtain paraffin sections of skin. The HE staining was performed to observe the pathological changes of the skin tissues of rats in each group. Staining method: The dried paraffin sections were conventionally dewaxed with xylene, hydrated with descending gradient ethanol, and washed with distilled water; the nuclei were stained with hematoxylin for 2 minutes, differentiated with hydrochloric acid and alcohol for a few seconds, and washed with water to return to blue; the sections were stained with eosin stain for 1 minute, and the residual stain was washed with water; the sections were dehydrated and dried with gradient alcohol, transparentized with xylene, and blocked with neutral gum, then observed under microscope. The epidermal hyperplasia of the skin tissue sample sections, arrangement of basal cells, presence or absence of inflammatory cell infiltration in the dermis, and changes in the number of capillaries in all groups were observed according to the evaluation indexes. Fontana-Masson staining was performed to observe the skin pigmentation of the rats. […] An immunohistochemistrical assay was performed to detect the expression of tyrosinase in the skin in each group.

tyrosinase = assay: Rat melasma model: immunohistochemical staining of tyrosinase in skin; conditions: for tyrosinase positive rate in the skin tissues: immunohistochemistry, skin collected Day 58, vs model group, P<0.001; for tyrosinase expression in the skin tissues: vs model group, P<0.01
Description: (§1) 3.1 Modeling: Before the experiment, on Day 0, SD rats (purchased from Beijing Vital River Experimental Animal Technology Co., Ltd., SPF grade, female, 7-8 weeks old, weighing 200±20 g) were randomly grouped and numbered. The hairs on the backs of animals in each group were shaved using an electric shaver, and the short hairs on the skin were removed with a depilatory cream to fully expose the back skin. The hair removal area was slightly larger than the actual modeling area (5 cm×5 cm). Each rat was depilated once every 2-3 days to ensure that the back skin was fully exposed. On the next day (Day 1), rats in each group were weighed, and the weights were recorded when the electronic scale reading was stable. A progesterone injection was injected intramuscularly at the base of the rat's thigh (alternately between the thighs on both sides), with a drug concentration of 20 mg/mL and an injection dose of 25 mg/kg, once a day. After the intramuscular injection, the rat's back skin was irradiated with ultraviolet light at a wavelength of 280-320 nm. The light source was about 30 cm away from the rat's back skin, and the irradiation time lasted for 60 minutes each time, for a total of 4 weeks.
The injection volume was 0.05 mL/cm^2, 5 days each time, and the administration lasted for 30 days continuously. The animals in the control group (only depilated, without modeling) and the model group were given the solvent.
3.3 Detection of indicators: The first day of modeling was denoted as Day 1, and the experimental period lasted for 58 days. After the end of the experiment (Day 58), 1 hour after the last administration, the skin of the modeling area of the rats in each group was photographed for scoring of apparent indexes (scoring criteria was provided in Table 1). Then the rats in each group were euthanized, their backs were depilated, and 0.5 g of full-thickness skin tissue from the depilated back was taken and placed into an ice bath, and normal saline was added to make a 10% tissue homogenate. The homogenate was centrifuged at 3000 r/min at room temperature for 10 min to obtain a supernatant of skin tissue homogenate. ELISA was carried out to detect the expression of endothelin-1 in the supernatant of skin tissue homogenate. The skin of the modeling area on the back of rats was taken and immersed in 10% neutral formaldehyde for fixation at room temperature for 4 days. Four days later (Day 62), paraffin embedding and sectioning were performed to obtain paraffin sections of skin. The HE staining was performed to observe the pathological changes of the skin tissues of rats in each group. […]

rat models of melasma [1] = assay: Rat melasma model (UVB irradiation + progesterone): apparent indexes, lesion color and area; conditions: Day 58, vs model group, P<0.05; local injection; tranexamic acid 5 mg/mL; compounds under test 5 mg/mL and 1.5 mg/mL
Description: as §1
(§2) The injection volume was 0.05 mL/cm^2, 5 days each time, and the administration lasted for 30 days continuously. […]

rat models of melasma [2] = assay: Rat melasma model: HE staining of skin tissues; conditions: vs model group, tranexamic acid 5 mg/mL, compounds under test 5 mg/mL and 1.5 mg/mL
Description: as §1, §2

endothelin-1 = assay: Rat melasma model: ELISA of ET-1 in supernatant of skin tissue homogenate; conditions: Day 58, vs model group, P<0.01, tranexamic acid 5 mg/mL, compounds under test 5 mg/mL and 1.5 mg/mL
Description: as §1, §2

Compound	distribution of melanin granules (melanin granules)	melanin granules in the skin tissue (melanin granules)	tyrosinase positive rate in the skin tissues (tyrosinase)	tyrosinase expression in the skin tissues (tyrosinase; 1.5 mg/mL group)	tyrosinase expression in the skin tissues (tyrosinase; 5 mg/mL group)	color of the lesion areas (rat models of melasma [1])	lesion area (rat models of melasma [1])	inflammatory cell infiltration (rat models of melasma [2])	thickness of the basal layer and stratum spinosum of the epidermal tissues (rat models of melasma [2])	ET-1 content in the skin tissue homogenate (endothelin-1)
Cl.O=C(O)c1ccc2c(n1)CCNC2 [compound under test 1, 5,6,7,8-tetrahydro-1,6-naphthyridine-2-carboxylic acid hydrochloride]	distributed discontinuously only in the basal layer	significantly reduced	significantly reduced	–	–	–	–	–	–	–
Cl.O=P(O)(O)c1ccc2c(n1)CCNC2 [compound under test 2, (5,6,7,8-tetrahydro-1,6-naphthyridin-2-yl)phosphonic acid hydrochloride]	–	–	–	significantly different from those in the model group	significantly different from those in the model group	–	–	–	–	–
Cl.O=S(=O)(O)c1ccc2c(n1)CC(CCCc1ccccc1)NC2 (centres unmarked) [compound under test 3, 7-(3-phenylpropyl)-5,6,7,8-tetrahydro-1,6-naphthyridine-2-sulfonic acid hydrochloride]	distributed discontinuously only in the basal layer	significantly reduced	significantly reduced	–	–	–	–	–	–	–
NC[C@H]1CC[C@H](C(=O)O)CC1 [tranexamic acid, Tranexamic acid]	–	reduced	–	–	–	significantly lighter	significantly reduced	improved	significantly reduced	significantly reduced
